“Also recorded” adds a separate entry of the source.

The nature of series [1]: Microsomal stability, pooled mouse liver microsomes. The format is in vitro ADME. To be noted: 1 μM, 37° C., 60 min. The method, then:
(§1) Microsomal stability of compound (II-4) (1 μM) was assessed in pooled liver microsomes (human, mouse, and rat) (FIG. 7). Briefly, compound (II-4) was incubated in duplicate with microsomes at 37° C. Reactions contained microsomal protein in 100 mM potassium phosphate, 2 mM NADPH, 3 mM MgCl2, pH 7.4. NADPH was omitted to detect NADPH-free degradation. At 60 minutes, the reaction was stopped by adding ice-cold methanol containing internal standard. Samples were centrifuged to remove precipitated protein, and the supernatants were analyzed by LC/MS/MS to quantitate the remaining parent.
(§2) Microsomal stability of compound (II-4) (1 μM) was assessed in pooled liver microsomes (human, mouse, and rat) (FIG. 23). Briefly, compound (II-4) was incubated in duplicate with microsomes at 37° C. Reactions contained microsomal protein in 100 mM potassium phosphate, 2 mM NADPH, 3 mM MgCl2, pH 7.4. NADPH was omitted to detect NADPH-free degradation. At 60 min, the reaction was stopped by adding ice-cold methanol (+ internal standard). Samples were centrifuged to remove precipitated protein, and the supernatants were analyzed by LC/MS/MS to quantitate the remaining parent.
For orientation: Microsomes from liver hold many membrane-bound enzymes, among them those of drug oxidation.

The test system of series [2] is retinal endothelial cells (REC). In words: Annexin V/PI apoptosis analysis by flow cytometry in REC. The format is cell-based, human. The procedure:
Harvested cells were washed twice with cold PBS/2% FBS. Pelleted cells were resuspended in Annexin V Binding Buffer (BioLegend, San Diego, Calif.) at a concentration of 5.0×10^6 cells/mL following manufacturer's instructions. 5.0×10^5 cells (100 μL) were labeled with 5 μL of FITC Annexin V and 10 μL of Propidium Iodide (PI) solution. Cells were vortexed gently and incubated for 15 minutes at RT in dark. 300 μL of Annexin V Binding Buffer were added to each sample tube and analyzed in BD LSRII Flow Cytometry Analyzer (BD Biosciences, San Jose, Calif.). Apoptotic cells were defined as Annexin V^+PI^neg while necrotic cells are defined as Annexin V^+PI^+. […]
To investigate the potential of compound (II-4) affecting the proliferative capacity of RECs treated with VEGF, proliferation was measured using the metabolic assay based on the tetrazolium salt, WST-1. […] Cells were harvested and apoptosis measured with Annexin-V/Propidium Iodide (PI) staining and analyzed using flow cytometry.
FIG. 18: REC Proliferation and Flow cytometry analysis of apoptosis in REC. A) VEGF-induced cellular proliferation was assessed using the WST-1 metabolic assay. […] B) Apoptosis was measured using Annexin V/PI staining Compound (II-4) (1 μM) appears to be non-cytotoxic to retinal endothelial cells after 24 hour incubation (n≈10,000 cells).

A short description of series [3]: Microsomal stability, pooled rat liver microsomes. The class given is in vitro ADME. To be noted: 1 μM, 37° C., 60 min. The method, then:
as §1, §2

Series [4] relates to AKT (Ser473). Nature of the series: Western blot of VEGF-induced AKT phosphorylation in REC. The format is cell-based, human. The conditions noted are these: REC under VEGF; compound (II-4) 500 nM, SU6656 1 μM. The method, then:
REC, Mel 270, OMM 2.5 under Hepatocyte Growth Factor (HGF) or Vascular Endothelial Growth Factor (VEGF) stimulation conditions: Cell lysates were collected in RIPA lysis buffer (50 mM Tris-HCl, pH 7.4, 150 mM NaCl, 2 mM EDTA, 1% Nonidet P-40, 0.1% SDS) with protease 1× inhibitor cocktail (Roche; Indianapolis, Ind.). Lysates were kept on ice and centrifuged at 10,000×g×10 minutes and total protein was measured using the BCA assay (Pierce, Rockford, Ill.). Protein samples were mixed with 4×LDS loading buffer with 2.5% 2-mercaptoethanol (Sigma-Aldrich), heated to 70° C. for 10 minutes, and loaded on NuPAGE 4-12% Bis-Tris gel (Invitrogen, Carlsbad, Calif.). Immunoblotting was performed with nitrocellulose membranes (Bio-Rad, Hercules, Calif.) at 170-mA start and 110-mA end at 25 V for two hours in NuPAGE transfer buffer (Invitrogen) containing 20% methanol. Membranes were blocked using Odyssey blocking buffer (LI-COR; Lincoln, Nebr.) for one hour at room temperature with gentle shaking Membranes were then incubated at 4° C. with specific primary antibodies (1:1000) overnight. Cellular protein was normalized using rabbit-GAPDH or mouse-α-Tubulin [1:20,000] (Cell Signaling, Danvers, Mass.; LI-COR, respectively). […] Dual-channel infrared scan and quantitation of immunoblots were conducted using the ODYSSEY Sa infrared imaging system with Image Studio (Ver. 3.1.4) (LI-COR). […]

Series [5] is described as follows: Microsomal stability, pooled human liver microsomes. The class given is in vitro ADME. The procedure: as §1, §2

For the compound `COc1cc(C2OC(=O)Nc3c2ccc2ccccc32)cc(OC)c1OC` (stereo not shown) [compound II-4], the “microsomal stability (metabolism by cytochrome P-450 enzymes)” value in series [1] was “rapidly metabolized”; in series [3], “rapidly metabolized”; in series [5] (human, 1 μM, 37° C., 60 min), “rapidly metabolized”. Further, the “spontaneous apoptosis in REC (PI and Annexin V)” value in series [2] (1 μM for 4-hrs) is recorded as “did not cause an increase in spontaneous apoptosis”. Moreover, the “apoptosis / cytotoxicity in REC (Annexin-V/PI)” value in series [2] (1 μM for 24 hours) was “No evidence of apoptosis was detected; also recorded: non-cytotoxic”. Further, the “VEGF-induced activation of AKT (P-AKT Ser473)” value in series [4] is on record as “able to prevent; also recorded: reduced”. In addition, the “susceptibility to P-450 interaction in human microsomes compared to rodent” value in series [5] (human vs rodent microsomes) is given as “less susceptible”.

Values taken from patent publication US9834525B2, “Inhibitors of paxillin function and related compositions and methods” (UNIVERSITY OF TENNESSEE RESEARCH FOUNDATION, priority 2015, dated 2017).
